From patent US20050203119A1, “Dihydropyridine compounds for treating or preventing metabolic disorders” (priority 2003, published 2005)

Columns and labels:
[1] = test system: male db/db mice (BKS.Cg-m+/+Lepr db/J); test: Intraperitoneal glucose tolerance test (IPGTT) in db/db mice (Example 122, FIGS. 3 and 5); format: in vivo, mouse; conditions: IPGTT
Description: Six to eight week old, male db/db mice (BKS.Cg-m+/+Lepr^db/J; stock number 000642), homozygous for a mutation in the gene encoding the leptin receptor, were purchased from The Jackson Laboratory (Bar Harbor, Me. USA). Animals were singly housed in conventional caging on a 12 hr/12 hr light/dark cycle, acclimated for at least five days prior to use and fed normal laboratory chow ad libitum between experiments. Studies were conducted with animals between seven and fourteen weeks of age. Animals were used for a maximum of five consecutive studies, with a minimum recovery period of five days between studies.
To perform an IPGTT or OGTT, db/db mice were fasted overnight beginning on day 0 at −17.5 to −18.5 hrs relative to the glucose dose on day 1 (all time points below are stated relative to the time of an intraperitoneal or oral glucose dose on day 1). At −4.5 hrs, animals were weighed, blood was collected by tail vein lancing and fasted blood glucose levels determined using a hand-held glucometer (MediSense Precision Xtra or LifeScan OneTouch Ultra). Animals were randomized into dosing groups of 6-7 animals, with each group having a similar average fasted blood glucose level. At −3 hr, animals were dosed with vehicle alone, a test compound or metformin by oral gavage at 5 ml/kg body weight. […] Blood glucose levels were determined as above at −45 min and +45 min, and also +90 min and/or +150 min (see FIG. 3 and the Table in this section). Alternatively, blood glucose levels were determined at −30 min, +30 min, +60 min and +120 min (see FIGS. 4 and 5).
Compound doses were adjusted to be the molar equivalents of 50 mg/kg of Compound 39. The percent change in blood glucose between −45 min and a time point, y, after glucose dosing (e.g., +45 min, +150 min, ect.) was calculated for each animal using formula 1: [formula]
The percent change in blood glucose between −45 min and a time point, y, after glucose dosing was calculated for each animal using formula 1.
Average percent change in glucose intolerance was calculated using Formula 2, as noted in the table below. […]

[2] = test system: male db/db mice (C57BLKS/J-m+/+Lepr db/Iar); test: Seven day baseline glucose (7DBG) study in fed db/db mice (Example 123, FIGS. 6 and 8); format: in vivo, mouse; conditions: oral once daily 7 days
Description: To determine the effect of a test compound on blood glucose levels in fed diabetic mice, seven day baseline glucose (7DBG) studies were conducted. Six to eight week old, male db/db mice (C57BLKS/J-m+/+Lepr^db/Iar), homozygous for a mutation in the gene encoding the leptin receptor, were purchased from the Institute for Animal Reproduction (Kasumigaura, Japan). Six to eight week old male KK-A^y mice (KK-A^y/Ta Jcl), a polygenic diabetes model, were purchased from Cler Japan (Tokyo, Japan). Animals were housed four to a cage in micro-isolators on a 12 hr/12 hr light/dark cycle, acclimated for at least one week prior to use and fed normal laboratory chow ad libitum. Studies were conducted with animals between nine and fourteen weeks of age. […]
To perform a 7DBG study, the starting glucose levels of db/db or KK-Ay mice in the fed state were determined on day 0, 24 hrs prior to the first drug dose on day 1. Animals were retro-orbitally bled and serum glucose levels measured by the mutarotase-glucose oxidase enzymatic method using a Glucose CII-Test Wako kit (Wako Pure Chemicals Industries, Ltd., Osaka, Japan). […] Serum glucose levels were determined 3 hrs after dosing the first compound on days 3 and 7.
The serum glucose levels on days 3 or 7 as a percent of the serum glucose levels on day 0 for individual animals in each group (6-7 mice/group), calculated using Formula 3: [formula] […]

Lepr db mice = test: Oral glucose tolerance test in Lepr db mice (Example 120); format: in vivo, mouse
Description: Compound 39 (25, 50 and 100 mg/kg) and vehicle (0.5% Methylcellulose) were administered orally at one hour before glucose loading (2 g/kg, PO) to Lepr db mice fasted for about 4 hours. Blood samples were collected sequentially from the retro-orbital sinus at pre-treatment one day before and about 1 and about 2 hours after glucose loading. Serum glucose values were obtained at about 1 and about 2 hours after glucose loading, percentage reductions were expressed as percentage of corresponding vehicle control values and unpaired Student's t test was then applied for comparison between test substance and vehicle group. Differences are considered significant at P<0.05 level.

Male SD rats = conditions: rat, in vivo
Description: Male SD rats weighing 350-420 g were anesthetized with 2-3% isoflurane. The femoral artery and vein were catheterized and connected to a mean arterial blood pressure (MAP) and heart rate (HR) monitor and a continuous intravenous infusion pump. Under anesthesia, MAP and HR were recorded 10-20 minutes prior to and during the continuous intravenous infusion of test compounds for 60-70 minutes. The infusion rate, 0.14-0.16 ml/kg/minute, was determined on the basis of vehicle tolerance. The infusion doses, 1.0-1.25 mg/kg/minute, were selected, depending upon the solubility of the compound and effects on MAP and HR of the positive control compounds at the lethal dose. The maximal effective dose or lethal dose of test compounds were determined accordingly.

CCOC(=O)C1=C(COCCN)NC2=C(C(=O)CC(C)(C)C2)C1c1cccnc1 (stereo not shown) [Compound 39, 2-(2-Amino-ethoxymethyl)-7,7-dimethyl-5-oxo-4-pyridin-3-yl-1,4,5,6,7,8-hexahydro-quinoline-3-carboxylic acid ethyl ester]
glucose intolerance relative to vehicle-treated animals (FIG. 5) ([1]; Compound 39 orally dosed alone): decreased
effect of metformin on glucose intolerance in combination with Compound 39 (FIG. 5) ([1]; Compound 39 orally in combination with metformin): enhanced
glucose lowering activities of rosiglitazone and metformin in combination with Compound 39 (FIG. 8) [2]: enhanced
Serum Glucose (Lepr db mice; 0 hr (pre-treatment one day before), 25 mg/kg group): 375.9 ± 16.3 mg/dL
Serum Glucose (Lepr db mice; 0 hr (pre-treatment one day before), 50 mg/kg group): 371.1 ± 15.2 mg/dL
Serum Glucose (Lepr db mice; 0 hr (pre-treatment one day before), 100 mg/kg group): 340.7 ± 14.2 mg/dL
Serum Glucose (Lepr db mice; 1 hr after glucose loading (2 g/kg PO), 25 mg/kg orally): 379.3 ± 18.5 mg/dL
Serum Glucose (Lepr db mice; 1 hr after glucose loading (2 g/kg PO), 50 mg/kg orally): 415.6 ± 11.0 mg/dL
Serum Glucose (Lepr db mice; 1 hr after glucose loading (2 g/kg PO), 100 mg/kg orally): 366.2 ± 17.3 mg/dL
serum glucose % Reduction relative to vehicle (Lepr db mice; 1 hr after glucose loading, 25 mg/kg orally): (19.3) %
serum glucose % Reduction relative to vehicle (Lepr db mice; 1 hr after glucose loading, 50 mg/kg orally): (11.6) %
serum glucose % Reduction relative to vehicle (Lepr db mice; 1 hr after glucose loading, 100 mg/kg orally): (22.1) %
Serum Glucose (Lepr db mice; 2 hr after glucose loading (2 g/kg PO), 25 mg/kg orally): 331.1 ± 14.5 mg/dL
Serum Glucose (Lepr db mice; 2 hr after glucose loading (2 g/kg PO), 50 mg/kg orally): 346 ± 16.8 mg/dL
Serum Glucose (Lepr db mice; 2 hr after glucose loading (2 g/kg PO), 100 mg/kg orally): 301.3 ± 28.4 mg/dL
serum glucose % Reduction relative to vehicle (Lepr db mice; 2 hr after glucose loading, 25 mg/kg orally): (11.8) %
serum glucose % Reduction relative to vehicle (Lepr db mice; 2 hr after glucose loading, 50 mg/kg orally): (7.8) %
serum glucose % Reduction relative to vehicle (Lepr db mice; 2 hr after glucose loading, 100 mg/kg orally): (19.7) %
Lethal Dose (Male SD rats): >70 mg/kg
